Assay [1] addresses T1, Monoglyceride lipase (Homo sapiens, UniProt Q99685).
T1 sequence (Q99685 whole entry): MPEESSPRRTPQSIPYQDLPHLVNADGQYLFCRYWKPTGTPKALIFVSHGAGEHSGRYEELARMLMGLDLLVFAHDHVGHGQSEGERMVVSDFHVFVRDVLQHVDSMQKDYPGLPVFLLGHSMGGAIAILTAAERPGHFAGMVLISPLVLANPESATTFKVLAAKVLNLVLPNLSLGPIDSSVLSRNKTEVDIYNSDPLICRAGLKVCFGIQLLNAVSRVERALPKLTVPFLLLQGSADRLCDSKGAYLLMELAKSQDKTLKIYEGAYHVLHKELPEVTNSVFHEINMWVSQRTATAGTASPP
The assay is described as follows: Inhibition of human MAGL.

The target of assay [2] is T1, Monoglyceride lipase. The assay is described as follows: Inhibition of human MAGL transfected in human HEK293T cells assessed as reduction in ABPP binding by competitive binding assay. The assay is classed as cell-based.
The target in assay [3] is T1, Monoglyceride lipase. The assay is described as follows: Inhibition of MAGL (unknown origin).
Assay [4] addresses T1, Monoglyceride lipase. The assay is described as follows: Inhibition of human MAGL using 4-Nitrophenylacetate as substrate.

Usually IC50 stands for the concentration that gives 50% inhibition. Regarding `O=C(N1CCC(C(c2ccc3c(c2)OCO3)c2ccc3c(c2)OCO3)CC1)n1cncn1`, the IC50 on Monoglyceride lipase [1] is < 0.4 nM. For the compound `O=C(OC(C(F)(F)F)C(F)(F)F)N1CCC(C(O)(c2ccc3c(c2)OCO3)c2ccc3c(c2)OCO3)CC1`, the IC50 on Monoglyceride lipase [2] was 5.9 nM. With `CCCCNC(=O)Oc1ccc(C2=NCCS2)cc1`, the concentration for half-maximal inhibition (IC50) at Monoglyceride lipase [3] worked out at 31000 nM. As for `O=C(CNc1ccc([N+](=O)[O-])cc1)Nc1ccc(-c2nc3ccccc3s2)cc1`, on Monoglyceride lipase [4], the IC50 is > 100000 nM. `CN(C)C(=O)n1nnc(Cc2ccc(-c3ccccc3)cc2)n1` gave an IC50 against Monoglyceride lipase [3] of 0.9 nM. Take `COc1nn(-c2ccc(NC(=O)OCc3ccccc3)c(C)c2)c(=O)o1`: the IC50 on Monoglyceride lipase [4] came to 424 nM. On Monoglyceride lipase [3], `O=C(Nc1cccc(-c2ccccc2)c1)OC1CCCCC1` had an IC50 of 28000 nM.

These data come from ChEMBL document CHEMBL4765227, “Hit to lead optimization of a series of N-[4-(1,3-benzothiazol-2-yl)phenyl]acetamides as monoacylglycerol lipase inhibitors with potential anticancer activity” (Eur J Med Chem, 2016).
